One compound from ChEMBL document CHEMBL1130363, “Design and synthesis of hapten to induce phospholipase A2-like catalytic antibody” (Bioorg Med Chem Lett, 1997) can be followed below.

What is called IC50 is the concentration at which inhibition is half-maximal. Low values mean higher potency, high ones lower potency.

The target of the test is T1, Lysosomal phospholipase A and acyltransferase (Homo sapiens, UniProt Q8NCC3).
T1 sequence (Q8NCC3 whole entry): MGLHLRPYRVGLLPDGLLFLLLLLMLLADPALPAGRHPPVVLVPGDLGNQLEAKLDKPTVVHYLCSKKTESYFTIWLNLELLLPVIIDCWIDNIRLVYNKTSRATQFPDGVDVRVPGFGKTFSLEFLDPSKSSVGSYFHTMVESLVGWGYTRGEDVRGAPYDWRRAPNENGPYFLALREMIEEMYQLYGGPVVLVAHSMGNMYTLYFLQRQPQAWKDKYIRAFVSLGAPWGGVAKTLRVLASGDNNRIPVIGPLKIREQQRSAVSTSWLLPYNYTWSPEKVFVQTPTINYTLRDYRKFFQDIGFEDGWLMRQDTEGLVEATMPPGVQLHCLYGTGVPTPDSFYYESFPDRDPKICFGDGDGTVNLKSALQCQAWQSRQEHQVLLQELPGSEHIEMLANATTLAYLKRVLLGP
The test is described as follows: Inhibitory activity against phospholipase A2 enzyme.

Molecules are shown by their SMILES.

Compound `CCCCCCCCCCP(=O)(O)OC(COCCCCCCCCCC(=O)OC)COP(=O)([O-])OCC[N+](C)(C)C` (stereo unspecified) [ESTER OF PHOSPHOLIPID] had an IC50 of 9.75 mM.
